Reference: patent US20230085307A1, “PYRIDAZINONE COMPOUND AND HERBICIDE” (NISSAN CHEMICAL CORPORATION, priority 2019, published 2023)

Experiments:
barnyard grass [1] = assay: Test Example 5: herbicidal effect by foliage application, plastic box (Table 20, symbol H); assay type: in vivo, barnyard grass (Echinochloa crus-galli); details: foliage application
Outline: (§1)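 Sow seeds spot-wise in sterilized diluvial soil; cover with ~1.5 cm soil. Grow 14 days in greenhouse, 25° C. to 30° C. Spray foliage with emulsion diluted to predetermined amount. Rate effect after 3 weeks.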

green foxtail [2] = assay: Test Example 4: herbicidal effect by soil treatment (Table 19, symbol G); assay type: in vivo, green foxtail (Setaria viridis)
Outline: (§2)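 Applied as a water-diluted emulsion, the compound was sprayed onto soil covering newly sown seeds. Evaluation came three weeks after application, in a greenhouse held at 25° C. to 30° C.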

redroot pigweed [3] = assay: Test Example 5: herbicidal effect by foliage application, plastic box (Table 20, symbol N); assay type: in vivo, redroot pigweed (Amaranthus retroflexus); details: foliage application
Outline: as §1

Italian ryegrass [4] = assay: Test Example 5: herbicidal effect by foliage application, plastic box (Table 20, symbol K); assay type: in vivo, Italian ryegrass (Lolium multiflorum); details: foliage application
Outline: as §1

lambsquarters [5] = assay: Test Example 4: herbicidal effect by soil treatment (Table 19, symbol O); assay type: in vivo, lambsquarters (Chenopodium album)
Outline: as §2

wild oat [6] = assay: Test Example 5: herbicidal effect by foliage application, plastic box (Table 20, symbol I); assay type: in vivo, wild oat (Avena fatua); details: foliage application
Outline: as §1

lambsquarters [7] = assay: Test Example 5: herbicidal effect by foliage application, plastic box (Table 20, symbol O); assay type: in vivo, lambsquarters (Chenopodium album); details: foliage application
Outline: as §1

barnyard grass [8] = assay: Test Example 4: herbicidal effect by soil treatment (Table 19, symbol H); assay type: in vivo, barnyard grass (Echinochloa crus-galli)
Outline: as §2

blackgrass [9] = assay: Test Example 5: herbicidal effect by foliage application, plastic box (Table 20, symbol J); assay type: in vivo, blackgrass (Alopecurus myosuroides); details: foliage application
Outline: as §1

barnyard grass [10] = assay: Test Example 3: herbicidal effect by foliage application, Wagner pot (Table 18, symbol H); assay type: in vivo, barnyard grass (Echinochloa crus-galli)
Outline: (§3)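 Plants were sown in alluvial soil held under 0.1–0.5 cm standing water and grown 14 days in a greenhouse at 25–30 °C. An emulsifiable formulation, water-diluted to the set dose, was then sprayed onto the foliage, and effects were scored three weeks later using previously defined criteria.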

redroot pigweed [11] = assay: Test Example 4: herbicidal effect by soil treatment (Table 19, symbol N); assay type: in vivo, redroot pigweed (Amaranthus retroflexus)
Outline: as §2

blackgrass [12] = assay: Test Example 4: herbicidal effect by soil treatment (Table 19, symbol J); assay type: in vivo, blackgrass (Alopecurus myosuroides)
Outline: as §2

southern crabgrass [13] = assay: Test Example 5: herbicidal effect by foliage application, plastic box (Table 20, symbol F); assay type: in vivo, southern crabgrass (Digitaria ciliaris); details: foliage application
Outline: as §1

chickweed [14] = assay: Test Example 5: herbicidal effect by foliage application, plastic box (Table 20, symbol P); assay type: in vivo, common chickweed (Stellaria media); details: foliage application
Outline: as §1

green foxtail [15] = assay: Test Example 5: herbicidal effect by foliage application, plastic box (Table 20, symbol G); assay type: in vivo, green foxtail (Setaria viridis); details: foliage application
Outline: as §1

Chinese sprangletop = assay: Test Example 3: herbicidal effect by foliage application, Wagner pot (Table 18, symbol D); assay type: in vivo, chinese sprangletop (Leptochloa chinensis)
Outline: as §3

velvetleaf [16] = assay: Test Example 5: herbicidal effect by foliage application, plastic box (Table 20, symbol M); assay type: in vivo, velvetleaf (Abutilon theophrasti); details: foliage application
Outline: as §1

windgrass [17] = assay: Test Example 4: herbicidal effect by soil treatment (Table 19, symbol L); assay type: in vivo, windgrass (Apera spica-venti)
Outline: as §2

Italian ryegrass [18] = assay: Test Example 4: herbicidal effect by soil treatment (Table 19, symbol K); assay type: in vivo, Italian ryegrass (Lolium multiflorum)
Outline: as §2

velvetleaf [19] = assay: Test Example 4: herbicidal effect by soil treatment (Table 19, symbol M); assay type: in vivo, velvetleaf (Abutilon theophrasti)
Outline: as §2

false cleavers = assay: Test Example 4: herbicidal effect by soil treatment (Table 19, symbol Q); assay type: in vivo, false cleavers (Galium spurium)
Outline: as §2

windgrass [20] = assay: Test Example 5: herbicidal effect by foliage application, plastic box (Table 20, symbol L); assay type: in vivo, windgrass (Apera spica-venti); details: foliage application
Outline: as §1

wild oat [21] = assay: Test Example 4: herbicidal effect by soil treatment (Table 19, symbol I); assay type: in vivo, wild oat (Avena fatua)
Outline: as §2

persian speedwell [22] = assay: Test Example 4: herbicidal effect by soil treatment (Table 19, symbol R); assay type: in vivo, Persian speedwell (Veronica persica)
Outline: as §2

chickweed [23] = assay: Test Example 4: herbicidal effect by soil treatment (Table 19, symbol P); assay type: in vivo, common chickweed (Stellaria media)
Outline: as §2

southern crabgrass [24] = assay: Test Example 4: herbicidal effect by soil treatment (Table 19, symbol F); assay type: in vivo, southern crabgrass (Digitaria ciliaris)
Outline: as §2

rice flat sedge = assay: Test Example 3: herbicidal effect by foliage application, Wagner pot (Table 18, symbol E); assay type: in vivo, rice flat sedge (Cyperus iria)
Outline: as §3

persian speedwell [25] = assay: Test Example 5: herbicidal effect by foliage application, plastic box (Table 20, symbol R); assay type: in vivo, Persian speedwell (Veronica persica); details: foliage application
Outline: as §1

[26] = AAH 80 g/ha, three weeks after application
[27] = 320 g/ha, evaluated three weeks after application

COc1ccc(-c2sc3ccccc3c2-c2c(O)c(OC)nn(C)c2=O)cc1OC [1-182]
H: barnyard grass, herbicidal effect (barnyard grass [1]; [26]): 3 (Herbicidal rate of 40% or more and less than 70%) | G: green foxtail, herbicidal effect rating (green foxtail [2]; AAH 80 g/ha): 5 (Herbicidal rate of 90% or more (almost completely withered)) | N: redroot pigweed, herbicidal effect (redroot pigweed [3]; [26]): 3 (Herbicidal rate of 40% or more and less than 70%) | K: Italian ryegrass, herbicidal effect (Italian ryegrass [4]; [26]): 3 (Herbicidal rate of 40% or more and less than 70%) | O: lambsquarters, herbicidal effect rating (lambsquarters [5]; AAH 80 g/ha): 4 (Herbicidal rate of 70% or more and less than 90%) | I: wild oat, herbicidal effect (wild oat [6]; [26]): 0 (Herbicidal rate of 5% or less (almost no effect)) | O: lambsquarters, herbicidal effect (lambsquarters [7]; [26]): 5 (Herbicidal rate of 90% or more (almost completely withered)) | H: barnyard grass, herbicidal effect rating (barnyard grass [8]; AAH 80 g/ha): 0 (Herbicidal rate of 5% or less (almost no effect)) | J: blackgrass, herbicidal effect (blackgrass [9]; [26]): 0 (Herbicidal rate of 5% or less (almost no effect)) | herbicidal effect on H (barnyard grass), rating 0-5 (barnyard grass [10]; 80 g/ha): 4 (Herbicidal rate of 70% or more and less than 90%) | N: redroot pigweed, herbicidal effect rating (redroot pigweed [11]; AAH 80 g/ha): 5 (Herbicidal rate of 90% or more (almost completely withered)) | J: blackgrass, herbicidal effect rating (blackgrass [12]; AAH 80 g/ha): 0 (Herbicidal rate of 5% or less (almost no effect)) | F: southern crabgrass, herbicidal effect (southern crabgrass [13]; [26]): 3 (Herbicidal rate of 40% or more and less than 70%) | P: chickweed, herbicidal effect (chickweed [14]; [26]): 5 (Herbicidal rate of 90% or more (almost completely withered)) | G: green foxtail, herbicidal effect (green foxtail [15]; [26]): 4 (Herbicidal rate of 70% or more and less than 90%) | herbicidal effect on D (Chinese sprangletop), rating 0-5 (Chinese sprangletop; 80 g/ha): 3 (Herbicidal rate of 40% or more and less than 70%) | M: velvetleaf, herbicidal effect (velvetleaf [16]; [26]): 4 (Herbicidal rate of 70% or more and less than 90%) | L: windgrass, herbicidal effect rating (windgrass [17]; AAH 80 g/ha): 0 (Herbicidal rate of 5% or less (almost no effect)) | K: Italian ryegrass, herbicidal effect rating (Italian ryegrass [18]; AAH 80 g/ha): 0 (Herbicidal rate of 5% or less (almost no effect)) | M: velvetleaf, herbicidal effect rating (velvetleaf [19]; AAH 80 g/ha): 1 (Herbicidal rate of 5% or more and less than 20%) | Q: false cleavers, herbicidal effect rating (false cleavers; AAH 80 g/ha): 0 (Herbicidal rate of 5% or less (almost no effect)) | L: windgrass, herbicidal effect (windgrass [20]; [26]): 0 (Herbicidal rate of 5% or less (almost no effect)) | I: wild oat, herbicidal effect rating (wild oat [21]; AAH 80 g/ha): 0 (Herbicidal rate of 5% or less (almost no effect)) | R: persian speedwell, herbicidal effect rating (persian speedwell [22]; AAH 80 g/ha): 5 (Herbicidal rate of 90% or more (almost completely withered)) | P: chickweed, herbicidal effect rating (chickweed [23]; AAH 80 g/ha): 4 (Herbicidal rate of 70% or more and less than 90%) | F: southern crabgrass, herbicidal effect rating (southern crabgrass [24]; AAH 80 g/ha): 1 (Herbicidal rate of 5% or more and less than 20%) | herbicidal effect on E (rice flat sedge), rating 0-5 (rice flat sedge; 80 g/ha): 5 (Herbicidal rate of 90% or more (almost completely withered)) | R: persian speedwell, herbicidal effect (persian speedwell [25]; [26]): 5 (Herbicidal rate of 90% or more (almost completely withered))

Cc1nn(C)c(=O)c(-c2c(-c3ccc(F)cc3)sc3ccc(Cl)cc23)c1O [2-097]
herbicidal effect on H: barnyard grass (barnyard grass [1]; [27]): 5 (Herbicidal rate of 90% or more (almost completely withered)) | herbicidal effect rating, G: green foxtail (green foxtail [2]; 320 g/ha): 3 (Herbicidal rate of 40% or more and less than 70%) | herbicidal effect on N: redroot pigweed (redroot pigweed [3]; [27]): 5 (Herbicidal rate of 90% or more (almost completely withered)) | herbicidal effect on K: Italian ryegrass (Italian ryegrass [4]; [27]): 5 (Herbicidal rate of 90% or more (almost completely withered)) | herbicidal effect rating, O: lambsquarters (lambsquarters [5]; 320 g/ha): 5 (Herbicidal rate of 90% or more (almost completely withered)) | herbicidal effect on I: wild oat (wild oat [6]; [27]): 5 (Herbicidal rate of 90% or more (almost completely withered)) | herbicidal effect on O: lambsquarters (lambsquarters [7]; [27]): 5 (Herbicidal rate of 90% or more (almost completely withered)) | herbicidal effect rating, H: barnyard grass (barnyard grass [8]; 320 g/ha): 3 (Herbicidal rate of 40% or more and less than 70%) | herbicidal effect on J: blackgrass (blackgrass [9]; [27]): 5 (Herbicidal rate of 90% or more (almost completely withered)) | herbicidal effect on H (barnyard grass), rating 0-5 (barnyard grass [10]; 320 g/ha): 5 (Herbicidal rate of 90% or more (almost completely withered)) | herbicidal effect rating, N: redroot pigweed (redroot pigweed [11]; 320 g/ha): 5 (Herbicidal rate of 90% or more (almost completely withered)) | herbicidal effect rating, J: blackgrass (blackgrass [12]; 320 g/ha): 5 (Herbicidal rate of 90% or more (almost completely withered)) | herbicidal effect on F: southern crabgrass (southern crabgrass [13]; [27]): 5 (Herbicidal rate of 90% or more (almost completely withered)) | herbicidal effect on P: chickweed (chickweed [14]; [27]): 5 (Herbicidal rate of 90% or more (almost completely withered)) | herbicidal effect on G: green foxtail (green foxtail [15]; [27]): 5 (Herbicidal rate of 90% or more (almost completely withered)) | herbicidal effect on D (Chinese sprangletop), rating 0-5 (Chinese sprangletop; 320 g/ha): 3 (Herbicidal rate of 40% or more and less than 70%) | herbicidal effect on M: velvetleaf (velvetleaf [16]; [27]): 5 (Herbicidal rate of 90% or more (almost completely withered)) | herbicidal effect rating, L: windgrass (windgrass [17]; 320 g/ha): 5 (Herbicidal rate of 90% or more (almost completely withered)) | herbicidal effect rating, K: Italian ryegrass (Italian ryegrass [18]; 320 g/ha): 5 (Herbicidal rate of 90% or more (almost completely withered)) | herbicidal effect rating, M: velvetleaf (velvetleaf [19]; 320 g/ha): 3 (Herbicidal rate of 40% or more and less than 70%) | herbicidal effect rating, Q: false cleavers (false cleavers; 320 g/ha): 4 (Herbicidal rate of 70% or more and less than 90%) | herbicidal effect on L: windgrass (windgrass [20]; [27]): 5 (Herbicidal rate of 90% or more (almost completely withered)) | herbicidal effect rating, I: wild oat (wild oat [21]; 320 g/ha): 1 (Herbicidal rate of 5% or more and less than 20%) | herbicidal effect rating, R: persian speedwell (persian speedwell [22]; 320 g/ha): 5 (Herbicidal rate of 90% or more (almost completely withered)) | herbicidal effect rating, P: chickweed (chickweed [23]; 320 g/ha): 5 (Herbicidal rate of 90% or more (almost completely withered)) | herbicidal effect rating, F: southern crabgrass (southern crabgrass [24]; 320 g/ha): 2 (Herbicidal rate of 20% or more and less than 40%) | herbicidal effect on E (rice flat sedge), rating 0-5 (rice flat sedge; 320 g/ha): 4 (Herbicidal rate of 70% or more and less than 90%) | herbicidal effect on R: persian speedwell (persian speedwell [25]; [27]): 5 (Herbicidal rate of 90% or more (almost completely withered))
